Several values for one entry are separate records, joined by “and”; a condition that tells them apart may be missing. Equal entries are not always repeated. Activity calls are given as the source filed them.
What was measured:
[1] = target: Glyceraldehyde-3-phosphate dehydrogenase (Homo sapiens, UniProt P04406)
[2] = target: T1, Dual specificity protein phosphatase 6 (Rattus norvegicus, UniProt Q64346); assay type: functional
T1 sequence (Q64346 whole entry): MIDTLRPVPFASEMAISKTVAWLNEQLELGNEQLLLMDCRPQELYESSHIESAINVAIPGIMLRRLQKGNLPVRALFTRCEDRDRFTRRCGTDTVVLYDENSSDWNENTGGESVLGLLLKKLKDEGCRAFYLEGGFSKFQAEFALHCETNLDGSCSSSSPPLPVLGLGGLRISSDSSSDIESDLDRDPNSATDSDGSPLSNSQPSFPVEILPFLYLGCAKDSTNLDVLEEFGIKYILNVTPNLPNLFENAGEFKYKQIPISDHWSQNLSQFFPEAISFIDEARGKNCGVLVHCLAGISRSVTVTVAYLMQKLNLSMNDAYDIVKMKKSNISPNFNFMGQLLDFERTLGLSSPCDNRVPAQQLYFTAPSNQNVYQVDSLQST

[3] = target: T2, Tyrosine-protein phosphatase non-receptor type 7 (Homo sapiens, UniProt P35236); assay type: functional
T2 sequence (P35236 whole entry): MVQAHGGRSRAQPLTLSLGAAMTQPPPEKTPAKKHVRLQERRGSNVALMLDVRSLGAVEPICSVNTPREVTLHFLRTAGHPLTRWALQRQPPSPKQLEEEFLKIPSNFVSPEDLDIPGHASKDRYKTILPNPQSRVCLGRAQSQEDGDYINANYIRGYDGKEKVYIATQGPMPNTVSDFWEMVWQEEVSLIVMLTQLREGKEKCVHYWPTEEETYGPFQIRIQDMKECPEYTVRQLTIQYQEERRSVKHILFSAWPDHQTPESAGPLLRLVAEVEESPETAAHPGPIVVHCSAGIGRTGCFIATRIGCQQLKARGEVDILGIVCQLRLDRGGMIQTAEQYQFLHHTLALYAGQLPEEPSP

[4] = target: T1, Dual specificity protein phosphatase 6
Estrogen receptor = Estrogen receptor (Homo sapiens, UniProt P03372);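 further: potency for inhibiting coactivator peptide recruitment to the receptor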
Mu-type opioid receptor = Mu-type opioid receptor (Homo sapiens, UniProt P35372); experiment: HTS Image-Based Screen for Agonists of the MOR Receptor. [Related pubchem assays (depositor defined):AID1777, AID1785, AID1786, AID2133]; assay type: functional;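 further: imaging of beta-arrestin GFP recruitment into spots after receptor activation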
[5] = target: T3, Kappa-type opioid receptor (Homo sapiens, UniProt P41145); assay type: functional
Estrogen receptor beta [6] = target: T4, Estrogen receptor beta (Homo sapiens, UniProt Q92731);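 further: recombinant ER-beta bound to coactivator SRC1 peptide in presence of estradiol agonist; inhibitors block coactivator peptide binding and lower the FRET signal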
[7] = target: T3, Kappa-type opioid receptor; assay type: functional; remark: listed apart in the source
[8] = target: T5, Delta-type opioid receptor (Homo sapiens, UniProt P41143); experiment: HTS Image-Based Screen for Antagonists of the DOR Receptor. [Related pubchem assays (depositor defined):AID1777, AID1785, AID1786, AID2133]; assay type: functional
Estrogen receptor beta [9] = target: T4, Estrogen receptor beta; experiment: blockers of SRC-3 recruitment to ERβ – biochemical, ELISA, streptavidin-HRP readout, orthogonal assay, confirmation (AID 1060)
[10] = target: T5, Delta-type opioid receptor; experiment: HTS Image-Based Screen for Agonists of the DOR Receptor. [Related pubchem assays (depositor defined):AID1777, AID1786, AID2133]; assay type: functional
Caspase-3 = target: T6, Caspase-3 (Homo sapiens, UniProt P42574); experiment: activators of human procaspase-3 D3A mutant – biochemical, absorbance, PC-3 D3A mutant, counter-screen for dual procaspase-3/7 activator project, dose response (AID 504328)
T6 sequence (P42574 whole entry): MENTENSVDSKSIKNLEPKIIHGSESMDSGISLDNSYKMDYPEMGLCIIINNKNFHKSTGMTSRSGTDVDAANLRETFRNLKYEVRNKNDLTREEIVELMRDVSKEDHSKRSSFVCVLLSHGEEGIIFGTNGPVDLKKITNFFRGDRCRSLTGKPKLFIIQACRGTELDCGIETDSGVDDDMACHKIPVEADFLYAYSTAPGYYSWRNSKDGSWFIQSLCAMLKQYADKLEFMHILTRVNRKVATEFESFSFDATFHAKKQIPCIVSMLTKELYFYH

[11] = viability of HCT116 lacking mutant beta-catenin – cell-based, human colon tumor, dose response (AID 1045); assay type: functional;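 further: HCT116 colon tumor cells with beta catenin knocked out; cells exposed to compound for 60 hours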
[12] = viability of PTEN-deleted HCT116 cells – cell-based, HCT116 PTEN knockout, dose response (AID 1047); assay type: functional;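 further: HCT116 colon tumor cells with PTEN knocked out; cells exposed to compound for 60 hours before readout; potency for loss of cell viability measured by luminescence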
[13] = A Cell Based Secondary Assay To Explore Cytotoxicity of Compounds that Sensitize Mycobacterium Tuberculosis to Beta-Lactam Antibiotics.; assay type: functional
Caspase-7 = Caspase-7 (Homo sapiens, UniProt P55210); experiment: potency of procaspase-7 enzyme activation – biochemical, absorbance, human, dual procaspase-3/-7 activator project, dose response (AID 504330)
Bcl-2-like protein 10 = Bcl-2-like protein 10 (Homo sapiens, UniProt Q9HD36); experiment: Bcl-B/TR3 peptide binding disruption – biochemical, fluorescence polarization, FITC-TR3 peptide, selectivity assay for Bfl-1 inhibitor project, primary screen (AID 748);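 further: fluorescence polarization from a fluorescein-labelled TR3 peptide binding purified Bcl-B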
[14] = target: T7, Carboxy-terminal domain RNA polymerase II polypeptide A small phosphatase 1 (Homo sapiens, UniProt Q9GZU7); experiment: CTDSP1 inhibitors, concentration-response, biochemical, absorbance readout, ultra-high-throughput screen actives (AID 540297); assay type: functional
T7 sequence (Q9GZU7 whole entry): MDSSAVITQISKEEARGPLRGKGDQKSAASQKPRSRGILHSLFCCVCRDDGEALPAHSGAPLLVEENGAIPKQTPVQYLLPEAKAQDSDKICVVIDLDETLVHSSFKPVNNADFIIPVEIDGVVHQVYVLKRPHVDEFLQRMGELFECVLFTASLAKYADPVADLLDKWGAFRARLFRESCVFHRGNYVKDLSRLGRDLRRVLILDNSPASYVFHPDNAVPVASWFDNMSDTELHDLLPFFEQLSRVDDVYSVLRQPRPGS

[15] = target: Induced myeloid leukemia cell differentiation protein Mcl-1 (Homo sapiens, UniProt Q07820); assay type: functional
Coagulation factor XII = target: T8, Coagulation factor XII (Homo sapiens, UniProt P00748); assay type: functional;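 further: activated factor XIIa alpha cleaving a fluorogenic AMC peptide substrate; inhibitor potency from loss of enzyme activity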
T8 sequence (P00748 whole entry): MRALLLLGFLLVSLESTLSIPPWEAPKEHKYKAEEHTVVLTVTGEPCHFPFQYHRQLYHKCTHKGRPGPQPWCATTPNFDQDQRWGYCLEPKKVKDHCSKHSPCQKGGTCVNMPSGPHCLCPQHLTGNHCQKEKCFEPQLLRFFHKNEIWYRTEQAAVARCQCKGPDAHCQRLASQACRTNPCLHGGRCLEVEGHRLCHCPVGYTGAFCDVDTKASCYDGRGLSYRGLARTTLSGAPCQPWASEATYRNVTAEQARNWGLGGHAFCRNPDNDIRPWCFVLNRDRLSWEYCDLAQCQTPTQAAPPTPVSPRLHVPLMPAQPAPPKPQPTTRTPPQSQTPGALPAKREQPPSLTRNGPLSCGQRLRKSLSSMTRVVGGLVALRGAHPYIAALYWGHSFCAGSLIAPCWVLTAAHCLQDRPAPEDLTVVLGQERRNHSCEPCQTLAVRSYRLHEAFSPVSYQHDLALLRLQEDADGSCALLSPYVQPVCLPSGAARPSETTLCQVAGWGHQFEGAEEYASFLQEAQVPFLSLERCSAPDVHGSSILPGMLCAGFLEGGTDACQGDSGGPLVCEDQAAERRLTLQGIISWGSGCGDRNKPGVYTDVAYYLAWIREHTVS

[16] = target: G-protein coupled receptor 35 (Homo sapiens, UniProt Q9HC97); experiment: inhibition of zaprinast-stimulated GPR35 beta-arrestin translocation – imaging, U2OS, beta-arrestin-GFP, zaprinast agonist, primary screen (AID 2058); assay type: functional;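 further: antagonist potency meaning inhibition of agonist-induced arrestin redistribution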
[17] = target: T9, Replicative DNA helicase DnaB (Mycobacterium tuberculosis, UniProt P9WMR3); experiment: DnaB intein splicing inhibitors, dose response, biochemical, cell-free fluorescence (AID 449749); assay type: functional
T9 sequence (P9WMR3 whole entry): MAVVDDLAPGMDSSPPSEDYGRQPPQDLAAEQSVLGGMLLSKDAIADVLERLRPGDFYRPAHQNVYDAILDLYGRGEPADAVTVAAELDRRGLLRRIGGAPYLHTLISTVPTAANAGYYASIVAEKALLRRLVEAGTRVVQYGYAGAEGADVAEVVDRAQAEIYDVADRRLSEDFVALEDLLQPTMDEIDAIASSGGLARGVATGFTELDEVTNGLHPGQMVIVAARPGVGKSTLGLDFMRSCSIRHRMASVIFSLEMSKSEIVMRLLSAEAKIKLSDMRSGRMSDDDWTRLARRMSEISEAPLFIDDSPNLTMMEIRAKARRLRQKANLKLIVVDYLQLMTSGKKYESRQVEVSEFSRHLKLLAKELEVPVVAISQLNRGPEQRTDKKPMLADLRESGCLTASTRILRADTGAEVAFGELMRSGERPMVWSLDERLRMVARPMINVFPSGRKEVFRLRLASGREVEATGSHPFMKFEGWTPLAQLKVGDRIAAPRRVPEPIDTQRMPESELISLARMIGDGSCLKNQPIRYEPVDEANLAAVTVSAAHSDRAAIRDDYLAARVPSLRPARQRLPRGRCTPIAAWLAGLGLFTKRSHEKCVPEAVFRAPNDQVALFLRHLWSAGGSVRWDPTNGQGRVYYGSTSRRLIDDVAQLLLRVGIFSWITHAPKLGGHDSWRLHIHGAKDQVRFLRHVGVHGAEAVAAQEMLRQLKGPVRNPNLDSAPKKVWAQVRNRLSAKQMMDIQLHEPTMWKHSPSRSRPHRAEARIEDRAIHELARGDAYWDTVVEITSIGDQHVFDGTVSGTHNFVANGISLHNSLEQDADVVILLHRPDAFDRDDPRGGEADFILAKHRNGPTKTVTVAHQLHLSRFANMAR

Protein RecA = target: T10, Protein RecA (Mycobacterium tuberculosis, UniProt P9WHJ3); experiment: Fluorescence Cell-Free Homogeneous Dose Retest to Identify Inhibitors of RecA-Intein Splicing Activity. [Related pubchem assays (depositor defined):AID2097, AID2223, AID489010, AID492950]; assay type: functional
T10 sequence (P9WHJ3 whole entry): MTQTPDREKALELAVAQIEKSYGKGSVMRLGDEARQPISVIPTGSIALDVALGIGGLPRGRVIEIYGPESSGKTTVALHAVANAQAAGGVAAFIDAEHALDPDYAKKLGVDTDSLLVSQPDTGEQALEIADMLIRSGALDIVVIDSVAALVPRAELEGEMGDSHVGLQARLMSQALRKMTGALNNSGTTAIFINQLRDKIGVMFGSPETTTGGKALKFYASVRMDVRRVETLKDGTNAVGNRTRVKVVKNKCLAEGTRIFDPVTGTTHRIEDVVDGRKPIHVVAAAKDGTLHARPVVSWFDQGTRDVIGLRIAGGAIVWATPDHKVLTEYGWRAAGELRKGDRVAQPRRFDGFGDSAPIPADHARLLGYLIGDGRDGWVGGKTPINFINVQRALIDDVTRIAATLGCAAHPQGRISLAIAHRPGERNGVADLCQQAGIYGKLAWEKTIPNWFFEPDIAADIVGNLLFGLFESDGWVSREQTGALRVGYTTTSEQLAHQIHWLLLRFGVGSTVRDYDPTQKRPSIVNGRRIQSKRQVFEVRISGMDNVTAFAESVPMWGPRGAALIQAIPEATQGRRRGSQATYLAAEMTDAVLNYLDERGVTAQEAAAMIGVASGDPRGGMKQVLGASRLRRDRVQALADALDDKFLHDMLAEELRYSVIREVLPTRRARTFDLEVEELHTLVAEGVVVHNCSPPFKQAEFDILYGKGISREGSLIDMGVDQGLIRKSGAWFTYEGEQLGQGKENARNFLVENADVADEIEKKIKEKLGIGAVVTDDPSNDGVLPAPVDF

[18] = target: Melanin-concentrating hormone receptor 1 (Homo sapiens, UniProt Q99705); experiment: Late-stage fluorescence-based counterscreen for antagonists of the G-protein coupled receptor 7 (GPR7): cell-based dose response assay to identify antagonists of the melanin-concentrating hormone receptor 1 (MCHR1). [Related pubchem assays (depositor defined):AID1861, AID1880, AID1952, AID2148, AID2251, AID2257, AID485339]; assay type: functional;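 further: stimulated with 30 nM MCH peptide agonist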
[19] = target: Scavenger receptor class B member 1 (Mus musculus, UniProt Q61009); experiment: mouse SR-BI DiI-HDL uptake blockers – ldlA[mSR-BI] cells, fluorescence, cherry pick, dose response (AID 493194); assay type: functional, cell-based;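 further: cellular uptake of fluorescent DiI-labeled HDL measured as cell fluorescence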
Trypanosoma cruzi = experiment: anti-trypanosomal activity in host cells – cell-based, plate reader, dry powder, set 3, dose response (AID 493197); assay type: functional
[20] = target: T11, Eukaryotic translation initiation factor 2-alpha kinase 3 (Homo sapiens, UniProt Q9NZJ5); experiment: Counterscreen assay for PERK inhibitors: Dose response cell-based high throughput screening assay to measure inhibition of PERK at 6 hours. [Related pubchem assays: 1522, 1416 ]; assay type: functional
[21] = target: T11, Eukaryotic translation initiation factor 2-alpha kinase 3; experiment: Dose response cell-based high-throughput screening assay to measure PERK inhibition. [Related pubchem assays: 1416 ]; assay type: functional

T4 sequence (Q92731 whole entry): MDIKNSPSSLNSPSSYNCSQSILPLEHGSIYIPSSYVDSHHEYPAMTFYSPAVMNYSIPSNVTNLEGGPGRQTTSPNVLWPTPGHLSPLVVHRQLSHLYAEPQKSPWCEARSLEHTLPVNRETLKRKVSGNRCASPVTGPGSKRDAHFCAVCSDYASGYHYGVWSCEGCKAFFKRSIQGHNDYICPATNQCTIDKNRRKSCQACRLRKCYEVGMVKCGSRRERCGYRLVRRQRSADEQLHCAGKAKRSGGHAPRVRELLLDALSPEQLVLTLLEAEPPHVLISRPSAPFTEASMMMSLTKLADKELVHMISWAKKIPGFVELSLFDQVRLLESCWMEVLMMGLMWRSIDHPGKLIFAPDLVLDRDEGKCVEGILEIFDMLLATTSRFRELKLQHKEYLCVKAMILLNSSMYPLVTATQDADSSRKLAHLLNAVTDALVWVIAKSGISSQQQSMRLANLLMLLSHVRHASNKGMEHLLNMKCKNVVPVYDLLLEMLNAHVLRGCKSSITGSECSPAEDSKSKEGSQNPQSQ
T11 sequence (Q9NZJ5 whole entry): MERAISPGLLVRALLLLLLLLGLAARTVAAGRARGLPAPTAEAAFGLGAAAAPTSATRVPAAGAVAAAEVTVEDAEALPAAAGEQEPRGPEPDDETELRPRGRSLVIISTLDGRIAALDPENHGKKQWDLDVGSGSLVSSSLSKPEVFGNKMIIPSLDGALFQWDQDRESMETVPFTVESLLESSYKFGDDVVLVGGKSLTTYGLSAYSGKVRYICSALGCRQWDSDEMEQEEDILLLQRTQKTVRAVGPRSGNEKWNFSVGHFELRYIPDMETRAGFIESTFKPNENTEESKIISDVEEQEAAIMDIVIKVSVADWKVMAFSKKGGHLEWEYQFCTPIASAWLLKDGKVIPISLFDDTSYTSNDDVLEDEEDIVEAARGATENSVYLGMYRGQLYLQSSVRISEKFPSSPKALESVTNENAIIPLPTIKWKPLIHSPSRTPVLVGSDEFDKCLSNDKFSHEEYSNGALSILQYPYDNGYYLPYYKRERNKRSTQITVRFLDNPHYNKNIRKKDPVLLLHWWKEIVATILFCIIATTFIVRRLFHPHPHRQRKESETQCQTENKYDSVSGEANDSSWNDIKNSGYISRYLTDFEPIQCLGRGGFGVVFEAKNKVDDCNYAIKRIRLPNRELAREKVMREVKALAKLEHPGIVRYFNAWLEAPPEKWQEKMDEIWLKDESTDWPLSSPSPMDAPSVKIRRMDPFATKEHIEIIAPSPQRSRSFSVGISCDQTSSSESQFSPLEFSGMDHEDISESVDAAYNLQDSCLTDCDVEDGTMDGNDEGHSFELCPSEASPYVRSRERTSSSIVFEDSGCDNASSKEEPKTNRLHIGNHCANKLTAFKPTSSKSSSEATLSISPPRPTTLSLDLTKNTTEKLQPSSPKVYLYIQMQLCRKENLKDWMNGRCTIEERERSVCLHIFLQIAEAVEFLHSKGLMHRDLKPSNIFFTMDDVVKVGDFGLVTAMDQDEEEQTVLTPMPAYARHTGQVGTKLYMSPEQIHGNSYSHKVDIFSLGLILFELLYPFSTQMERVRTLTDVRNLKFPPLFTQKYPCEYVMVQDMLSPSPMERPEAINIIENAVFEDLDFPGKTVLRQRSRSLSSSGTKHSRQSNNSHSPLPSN
T3 sequence (P41145 whole entry): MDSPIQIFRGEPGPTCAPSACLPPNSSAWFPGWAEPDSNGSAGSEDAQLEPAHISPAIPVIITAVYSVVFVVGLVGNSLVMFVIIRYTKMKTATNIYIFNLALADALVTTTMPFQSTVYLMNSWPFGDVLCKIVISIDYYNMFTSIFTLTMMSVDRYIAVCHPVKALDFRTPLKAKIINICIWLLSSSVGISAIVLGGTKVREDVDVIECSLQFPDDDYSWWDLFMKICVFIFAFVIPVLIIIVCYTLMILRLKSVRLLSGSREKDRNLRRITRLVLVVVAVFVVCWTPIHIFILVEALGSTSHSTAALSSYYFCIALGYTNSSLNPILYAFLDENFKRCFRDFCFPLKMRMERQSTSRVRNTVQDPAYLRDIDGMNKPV
T5 sequence (P41143 whole entry): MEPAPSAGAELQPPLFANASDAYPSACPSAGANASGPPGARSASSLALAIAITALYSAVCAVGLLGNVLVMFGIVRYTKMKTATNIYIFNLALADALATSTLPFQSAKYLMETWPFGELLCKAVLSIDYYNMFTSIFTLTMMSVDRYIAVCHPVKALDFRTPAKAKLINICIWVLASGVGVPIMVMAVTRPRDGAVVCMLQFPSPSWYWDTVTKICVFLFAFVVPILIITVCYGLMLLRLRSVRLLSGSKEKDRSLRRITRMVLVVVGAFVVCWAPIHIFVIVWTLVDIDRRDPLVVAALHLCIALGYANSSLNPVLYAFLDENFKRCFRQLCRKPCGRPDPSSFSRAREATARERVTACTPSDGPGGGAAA
Sequence of Estrogen receptor (P03372 whole entry): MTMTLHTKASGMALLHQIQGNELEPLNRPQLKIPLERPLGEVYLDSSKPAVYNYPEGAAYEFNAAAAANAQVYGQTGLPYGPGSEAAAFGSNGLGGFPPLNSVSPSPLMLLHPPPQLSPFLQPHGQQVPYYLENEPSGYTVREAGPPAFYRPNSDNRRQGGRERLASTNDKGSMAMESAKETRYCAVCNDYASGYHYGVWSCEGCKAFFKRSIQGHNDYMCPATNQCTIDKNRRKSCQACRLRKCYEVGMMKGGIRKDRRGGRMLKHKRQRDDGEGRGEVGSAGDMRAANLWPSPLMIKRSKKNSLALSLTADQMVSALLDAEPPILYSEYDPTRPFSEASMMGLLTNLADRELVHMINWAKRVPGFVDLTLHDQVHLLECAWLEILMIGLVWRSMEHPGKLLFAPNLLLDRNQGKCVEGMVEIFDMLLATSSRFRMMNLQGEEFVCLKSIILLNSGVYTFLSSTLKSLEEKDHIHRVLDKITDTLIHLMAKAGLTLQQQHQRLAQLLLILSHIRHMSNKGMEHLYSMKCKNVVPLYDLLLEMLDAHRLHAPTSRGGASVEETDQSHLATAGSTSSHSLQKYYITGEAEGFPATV
Sequence of G-protein coupled receptor 35 (Q9HC97 whole entry): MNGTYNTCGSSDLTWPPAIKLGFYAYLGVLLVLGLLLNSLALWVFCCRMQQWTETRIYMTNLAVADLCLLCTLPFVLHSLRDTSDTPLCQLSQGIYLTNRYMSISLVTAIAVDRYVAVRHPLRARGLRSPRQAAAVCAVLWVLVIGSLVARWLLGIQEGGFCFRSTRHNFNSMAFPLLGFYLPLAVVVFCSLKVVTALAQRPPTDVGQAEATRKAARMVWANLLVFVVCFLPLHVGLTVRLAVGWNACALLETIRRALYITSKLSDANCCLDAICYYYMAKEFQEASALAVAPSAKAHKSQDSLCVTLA
Sequence of Glyceraldehyde-3-phosphate dehydrogenase (P04406 whole entry): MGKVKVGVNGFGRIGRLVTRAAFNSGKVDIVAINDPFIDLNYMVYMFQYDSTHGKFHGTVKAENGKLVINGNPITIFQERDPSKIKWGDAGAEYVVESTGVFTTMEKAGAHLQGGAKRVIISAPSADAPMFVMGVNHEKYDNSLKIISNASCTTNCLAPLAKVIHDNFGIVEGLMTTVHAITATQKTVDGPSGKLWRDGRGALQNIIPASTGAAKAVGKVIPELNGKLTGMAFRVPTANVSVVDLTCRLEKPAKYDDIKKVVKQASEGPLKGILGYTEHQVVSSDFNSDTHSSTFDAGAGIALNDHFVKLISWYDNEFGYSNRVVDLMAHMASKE
Sequence of Scavenger receptor class B member 1 (Q61009 whole entry): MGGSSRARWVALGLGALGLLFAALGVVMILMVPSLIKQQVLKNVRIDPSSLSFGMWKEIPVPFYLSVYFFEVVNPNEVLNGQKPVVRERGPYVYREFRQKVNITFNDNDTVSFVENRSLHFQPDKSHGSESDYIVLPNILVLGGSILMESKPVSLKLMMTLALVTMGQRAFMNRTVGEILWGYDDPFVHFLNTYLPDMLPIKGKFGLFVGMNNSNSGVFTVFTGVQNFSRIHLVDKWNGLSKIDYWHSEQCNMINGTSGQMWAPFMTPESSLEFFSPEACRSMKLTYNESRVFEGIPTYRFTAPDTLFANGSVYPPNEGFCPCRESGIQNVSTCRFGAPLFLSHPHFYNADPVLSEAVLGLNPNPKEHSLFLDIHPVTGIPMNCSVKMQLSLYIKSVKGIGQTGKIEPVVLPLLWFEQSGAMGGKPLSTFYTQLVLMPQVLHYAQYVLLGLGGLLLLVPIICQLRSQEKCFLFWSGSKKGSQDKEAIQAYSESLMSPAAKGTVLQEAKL
Sequence of Mu-type opioid receptor (P35372 whole entry): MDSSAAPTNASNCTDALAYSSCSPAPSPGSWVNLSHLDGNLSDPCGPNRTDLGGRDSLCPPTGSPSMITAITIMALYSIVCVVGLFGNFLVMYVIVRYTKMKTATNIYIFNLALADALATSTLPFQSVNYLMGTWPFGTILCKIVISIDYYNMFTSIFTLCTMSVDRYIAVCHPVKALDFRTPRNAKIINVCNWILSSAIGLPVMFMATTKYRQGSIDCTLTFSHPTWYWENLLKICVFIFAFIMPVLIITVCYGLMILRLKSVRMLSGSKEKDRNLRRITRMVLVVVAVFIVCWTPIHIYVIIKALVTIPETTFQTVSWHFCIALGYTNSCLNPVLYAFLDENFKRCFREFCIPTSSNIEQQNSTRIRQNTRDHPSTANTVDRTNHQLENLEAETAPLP
Sequence of Melanin-concentrating hormone receptor 1 (Q99705 whole entry): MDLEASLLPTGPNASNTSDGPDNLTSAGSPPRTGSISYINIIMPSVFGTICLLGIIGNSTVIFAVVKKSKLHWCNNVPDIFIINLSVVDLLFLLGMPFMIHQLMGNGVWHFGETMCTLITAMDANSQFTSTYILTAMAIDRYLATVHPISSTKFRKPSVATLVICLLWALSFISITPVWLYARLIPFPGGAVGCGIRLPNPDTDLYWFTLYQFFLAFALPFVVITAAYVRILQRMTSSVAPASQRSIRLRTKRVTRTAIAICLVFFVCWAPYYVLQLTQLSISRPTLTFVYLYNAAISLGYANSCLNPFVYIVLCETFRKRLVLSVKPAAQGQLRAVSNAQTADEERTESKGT

Cc1ccc(CC(=O)Nc2cc(C)on2)cc1
IC50 [1]: 93.8 µM (active)
IC50 [2]: > 100 µM (inactive)
IC50 [3]: > 100 µM (not active)
IC50 [4]: > 100 µM (inactive)

N#Cc1ccc(-c2cccnc2)nc1SCC(=O)Nc1sc2c(c1C#N)CCC2
IC50 (Estrogen receptor): 15 µM (active)
EC50 (Mu-type opioid receptor): > 32 µM (inactive)
EC50 [5]: 16 µM
IC50 (Estrogen receptor beta [6]): > 50 µM (not active)
EC50 [7]: > 35 µM
IC50 [8]: > 32 µM (inactive)
IC50 (Estrogen receptor beta [9]): 3.69 µM (not active) and 149 nM (not active)
EC50 [10]: > 32 µM (inactive)

O=c1c(O)c(-c2ccc3c(c2)OCO3)oc2ccccc12
EC50 (Caspase-3): > 85.3 µM (inactive)
EC50 [11]: 23.1 µM (active)
EC50 [12]: 41.7 µM (active)
CC50 [13]: > 40 µM (active)
EC50 (Caspase-7): > 85.3 µM (inactive)

O=C(NCc1ccco1)c1c2c(nc3ccccc13)CCC2
IC50 (Bcl-2-like protein 10): 16.4 µM (active)
IC50 [14]: 5.65 µM (active)
IC50 [15]: 4.33 µM (active)
IC50 (Coagulation factor XII): > 50 µM (inactive)

O=C(/C=C/c1ccco1)c1ccc(NC(=O)C23CC4CC(CC(C4)C2)C3)cc1
IC50 [16]: 4.96 µM (active)
AC50 [17]: > 380 µM (inactive)
EC50 (Protein RecA): 55.5 µM (active)

COc1ccc(Oc2c(C)cnn(-c3ccc(C(C)C)cc3)c2=O)cc1
IC50 [18]: 9.8 µM (active)

CCOC(=O)N1CCN(C(=O)C2CCN(C(=O)Nc3ccccc3)CC2)CC1
AC50 [19]: 136 µM (active)

COc1ccc(C(C)NC(=O)C2CCN(CCCc3ccccc3)CC2)cc1OC (centres undefined)
AC50 (Trypanosoma cruzi): 66.3 µM (active)

O=C(CCc1ccccc1)NCC(=O)N/N=C/c1ccc(O)cc1O
EC50 [20]: > 55.7 µM (not active)
EC50 [21]: > 55.7 µM (not active)
